Experimental data from ChEMBL document CHEMBL1667741, “Rational design, synthesis, and characterization of highly fluorescent optical switches for high-contrast optical lock-in detection (OLID) imaging microscopy in living cells” (Bioorg Med Chem, 2011).

How the values were obtained:
Type in all cases: ADME, cell-based
Settings in all cases: nih3t3; call rule not given here
[1] = Drug uptake in mouse NIH/3T3 cells assessed as fluorescent optical switching measured after continuous irradiation at 546 and 365 nm light by optical lock-in detection imaging microscopy
[2] = Drug uptake in mouse NIH/3T3 cells assessed as fluorescent optical switching measured after every 2 s with 100 ms pulse of 365 nm irradiation by optical lock-in detection imaging microscopy
[3] = Drug uptake in mouse NIH/3T3 cells assessed as fluorescent optical switching measured after continuous irradiation at 546 nm light by optical lock-in detection imaging microscopy; parameters: dose or concentration left out as unconfirmed

| Drug uptake [1] | Drug uptake [2] | Drug uptake [3] | Structure (SMILES) |
| --- | --- | --- | --- |
| Active |  |  | CN(C)c1ccc2c(-c3ccc(C(=O)NCCCOc4ccc5ccc6c(c5c4)N=CC4(O6)N(CCCCCC(=O)ON5C(=O)CCC5=O)c5ccccc5C4(C)C)cc3C(=O)[O-])c3ccc(=[N+](C)C)cc-3oc2c1 (centres undefined) |
| Active |  |  | CN(C)c1ccc2c(-c3ccc(C(=O)NCc4cccc5c4C(C)(C)C4(C=Nc6c(ccc7ccc(O)cc67)O4)N5C)cc3C(=O)[O-])c3ccc(=[N+](C)C)cc-3oc2c1 (centres undefined) |
| Active |  |  | CN(C)c1ccc2c(-c3ccc(C(=O)NC(CCCCNC(=O)CCCc4ccc5c(c4)C(C)(C)C4(C=Nc6c(ccc7ccccc67)O4)N5C)C(=O)O)cc3C(=O)[O-])c3ccc(=[N+](C)C)cc-3oc2c1 (centres undefined) |
| Active |  |  | CN(C)c1ccc2c(-c3ccc(C(=O)NCCc4ccc5c(c4)C(C)(C)C4(C=Nc6c(ccc7ccccc67)O4)N5C)cc3C(=O)[O-])c3ccc(=[N+](C)C)cc-3oc2c1 (centres undefined) |
| Active | Active |  | CN(C)c1ccc2c(-c3ccc(C(=O)NCc4cccc5c4C(C)(C)C4(C=Nc6c(ccc7ccccc67)O4)N5C)cc3C(=O)[O-])c3ccc(=[N+](C)C)cc-3oc2c1 (centres undefined) |
| Active |  |  | CN(C)c1ccc2c(-c3ccc(C(=O)NCCCOc4ccc5ccc6c(c5c4)N=CC4(O6)N(C)c5ccc(CCCC(=O)ON6C(=O)CCC6=O)cc5C4(C)C)cc3C(=O)[O-])c3ccc(=[N+](C)C)cc-3oc2c1 (centres undefined) |
| Active |  | Active | COc1ccc2ccc3c(c2c1)N=CC1(O3)N(C)c2cccc(CNC(=O)c3ccc(-c4c5ccc(=[N+](C)C)cc-5oc5cc(N(C)C)ccc45)c(C(=O)[O-])c3)c2C1(C)C (centres undefined) |
